Experimental findings from PubChem BioAssay (NCI) are described below.

What all share (assay): NCI tumour cell line growth inhibition, 48 h
Experiment [1] concerns RXF-631 renal.
In experiment [2] the test system is XF 498 CNS.
Experiment [3] deals with P388 leukemia.
Experiment [4] relates to SN12K1 renal.
In experiment [5] the test system is P388/ADR leukemia.

Structures are written as SMILES.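 Results reflect a 48-hour exposure of cells in 96-well plates to compound at five concentrations. TGI: total growth inhibition.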

`Nc1nnc(N)n1NC(=O)C(=O)Nc1ccc([N+](=O)[O-])cc1`: the TGI in experiment [1] and in experiment [2] was > 100 µM throughout.

For the compound `COc1cc(O)c2c(c1)C(=O)c1cc(C)cc(O)c1C2=O`, the TGI in experiment [1] was > 100 µM.

For the compound `Cc1cc(=O)oc2c1cc(OCC(=O)OCCN1CCCCC1)c1occ(C)c12`, in experiment [2], the TGI was > 100 µM.

Take `NC(=O)Nc1cc(O)ccc1N=Nc1ccc(S(=O)(=O)Nc2ccccn2)cc1`: the TGI in experiment [2] is > 100 µM.

On to `COc1cc(C)c2c(=O)c3c(oc2c1)C(=O)c1c(O)c(OC)cc(O)c1C3=O`, for which the TGI in experiment [3] was > 50 µM; in experiment [4], 2.69 µM; in experiment [5] it was > 50 µM; in experiment [2], 2.29 µM.

As for `COc1c(Cl)cc(S(=O)O)cc1Cl`, the TGI in experiment [2] is > 100 µM.
